# Measurements published in patent US8969413B2.
# Legend:
# [1] = tested on: Mice; test: maximal electrical shock (MES) model; assay type: in vivo; conditions: Single IP dose, 50 mA, 2 seconds, corneal electrode
# Excerpt: The MES is a model for generalized tonic-clonic seizures and provides an indication of a compound's ability to prevent seizure spread when all neuronal circuits in the brain are maximally active. These seizures are highly reproducible and are electrophysiologically consistent with human seizures. For all tests based on MES convulsions, 60 Hz of alternating current (50 mA in mice) is delivered for 2 s by corneal electrodes which have been primed with an electrolyte solution containing an anesthetic agent (0.5% tetracaine HCL). Mice are tested at various intervals following doses of 30, 100 and 300 mg/kg of test compound given by i.p. injection of a volume of 0.01 mL/g. Other doses can be used if indicated by previously known pharmacology. An animal is considered “protected” from MES-induced seizures upon abolition of the hindlimb tonic extensor component of the seizure (Swinyard et al., 1989; White et al., 1995a; White et al., 1995b).
# [2] = tested on: Mice; test: minimal clonic seizure (6 Hz) test; assay type: in vivo; conditions: Single IP drug dose, 3 seconds, corneal electrode; for ED50: Mus musculus, ip
# Excerpt: Some clinically useful AEDs are ineffective in the standard MES and scMET tests but still have anticonvulsant activities in vivo. In order to identify potential AEDs with this profile, compounds may be tested in the minimal clonic seizure (6 Hz or ‘psychomotor’) test (Barton et al., 2001). […] Test compounds are pre-administered to mice via i.p. injection. At varying times, individual mice (four per time point) are challenged with sufficient current delivered through corneal electrodes to elicit a psychomotor seizure in 97% of animals (32 mA for 3 s) (Toman et al., 1952). Untreated mice will display seizures characterized by a minimal clonic phase followed by stereotyped, automatistic behaviors described originally as being similar to the aura of human patients with partial seizures. Animals not displaying this behavior are considered protected. The test may be evaluated quantitatively by measuring the responses at varying doses at a determined time of peak effect (TPE). This test may also be conducted at 22 and 44 mA if requested by ASP staff.
# [3] = tested on: GABA transporters in neurons, astrocytes, or mammalian cells recombinantly expressing human or mouse transporter subtypes; test: [3H]GABA uptake, all transporter systems; assay type: cell-based; conditions: 1 mM concentration
# Experimental: tsA201 cells were cultured in GlutaMAX-I DMEM supplemented with 10% fetal bovine serum, penicillin (100 U/ml), and streptomycin (100 μg/ml) at 37° C. in a humidified atmosphere of 95% air and 5% CO2. […] J. Biol. Chem. 2007, 282, 19331-19341. […] Quantification was performed by using Microscint™ 20 scintillation fluid (PerkinElmer) and a Packard TopCount microplate scintillation counter.
# Cortical astrocytes were cultured essentially as previously described. Hertz L, Juurlink B H J, Hertz E, Fosmark H and Schousboe A. Preparation of Primary Cultures of Mouse (Rat) Astrocytes, in A Dissection and Tissue Culture Manual of the Nervous System (Shahar A, de Vellis J, Vernadakis A and Haber B eds) pp 105-108, Alan R. Liss, Inc., New York, 1989 The neopallium was removed from new born NMRI mice (Taconic, Denmark) and passed through an 80 μm nylon sieve and cultured in modified Dulbecco's modified Eagle's medium with fetal calf serum. […]
# Cortical neurons were cultured essentially as previously described by removing the neopallium of 15-day old NMRI embryos by dissection followed by mild trypsination. […] Radioactivity was measured using Microscint™ 20 scintillation fluid (PerkinElmer) and a Packard TopCount microplate scintillation counter.
# [4] = tested on: Sprague Dawley rats; test: cocaine induced dopamine surge in nucleus accumbens (FIG. 3); conditions: 1 mg/kg single dose
# [5] = target: GABAB receptor (Rattus norvegicus, UniProt Q9Z0U4); test: biochemical
# [6] = tested on: Sprague-Dawley rats; test: μPET imaging of 11C-raclopride binding after cocaine
# [7] = tested on: cortical neurons; test: [3H]GABA uptake in cultured cortical neurons; assay type: cell-based; conditions: Mus musculus, Cortical neurone; read-out: neuron uptake IC50
# Experimental: Cortical neurons were cultured essentially as previously described by removing the neopallium of 15-day old NMRI embryos by dissection followed by mild trypsination. Hertz E, Yu A C H, Hertz L, Juurlink B H J and Schousboe A. Preparation of Primary Cultures of Mouse Cortical Neurons, in A Dissection and Tissue Culture Manual of the Nervous System (Shahar A, de Vellis J, Vernadakis A and Haber B eds) pp 183-186, Alan R. Liss, Inc., New York, 198. The neurons were cultured in 10% fetal calf serum and, after 48 h, cytosine arabinoside was added to a final concentration of 20 μM to prevent glial proliferation. Four cultures of stably transfected Human Embryonic Kidney (HEK)-293 cells expressing mGAT1-4 were prepared by the method previously reported. […] J Pharmacol Exp Ther. 2002, 302, 636-644 The stable cell lines are under the selection pressure of blasticidin-S at 5 μg/mL. Determinations of the IC50 values were conducted as described earlier. […] Radioactivity was measured using Microscint™ 20 scintillation fluid (PerkinElmer) and a Packard TopCount microplate scintillation counter.
# [8] = tested on: Mice; test: subcutaneous bicuculline (scBIC); assay type: in vivo; conditions: Single IP drug dose, 2.7 mg/kg BIC; from 10-200 mg/kg; inconclusive?
# Experimental: Bicuculline (Bic) and Picrotoxin (Pic) are chemoconvulsants that cause clonic seizures in a manner similar to Metrazol (see scMET test). […] Therefore, as much as possible it is useful to differentiate novel AEDs pharmacologically. […]. At a previously determined time of peak effect (TPE), the animals are given a subcutaneous injection of either of the noted chemo-convulsants using the convulsive dose (CD97—a dose of 2.7 or 2.5 mg/kg, for Bic and Pic, respectively). The experimental animals are placed in isolation cages to minimize possible crowding stresses (Swinyard et al., 1961) and observed for the next 30 minutes (for Bic) or 45 minutes (for Pic) for the presence or absence of a seizure. An episode of clonic spasms, approximately 3-5 seconds, of the fore and/or hindlimbs, jaws, or vibrissae is used as the experimental endpoint.
# Sequence of GABAB receptor (Q9Z0U4 17-960 limits assumed): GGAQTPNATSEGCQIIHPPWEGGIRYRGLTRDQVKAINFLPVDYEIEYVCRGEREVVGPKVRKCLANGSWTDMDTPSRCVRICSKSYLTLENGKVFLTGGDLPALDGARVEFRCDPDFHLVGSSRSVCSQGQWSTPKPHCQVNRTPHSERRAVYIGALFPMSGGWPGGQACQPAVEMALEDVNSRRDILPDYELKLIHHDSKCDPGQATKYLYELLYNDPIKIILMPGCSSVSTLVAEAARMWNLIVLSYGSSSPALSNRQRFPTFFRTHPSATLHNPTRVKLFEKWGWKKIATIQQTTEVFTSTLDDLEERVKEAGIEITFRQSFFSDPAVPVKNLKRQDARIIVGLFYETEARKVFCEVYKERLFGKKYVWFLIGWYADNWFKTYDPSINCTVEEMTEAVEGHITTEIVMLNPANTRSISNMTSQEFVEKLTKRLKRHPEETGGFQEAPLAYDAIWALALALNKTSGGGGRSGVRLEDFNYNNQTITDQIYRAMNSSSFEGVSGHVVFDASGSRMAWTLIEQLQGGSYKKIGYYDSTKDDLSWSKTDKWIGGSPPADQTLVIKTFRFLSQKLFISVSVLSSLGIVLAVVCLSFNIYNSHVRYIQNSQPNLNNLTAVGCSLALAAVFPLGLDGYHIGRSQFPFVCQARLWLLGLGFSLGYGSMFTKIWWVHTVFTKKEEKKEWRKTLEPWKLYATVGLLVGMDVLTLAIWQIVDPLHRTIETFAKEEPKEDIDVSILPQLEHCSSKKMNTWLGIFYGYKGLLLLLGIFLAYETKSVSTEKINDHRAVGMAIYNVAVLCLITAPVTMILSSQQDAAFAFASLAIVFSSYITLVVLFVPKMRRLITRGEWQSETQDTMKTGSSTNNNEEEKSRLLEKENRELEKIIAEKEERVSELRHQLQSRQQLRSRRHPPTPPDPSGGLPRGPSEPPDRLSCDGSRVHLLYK
# Sequence of GABAB receptor (O88871 41-940 partner): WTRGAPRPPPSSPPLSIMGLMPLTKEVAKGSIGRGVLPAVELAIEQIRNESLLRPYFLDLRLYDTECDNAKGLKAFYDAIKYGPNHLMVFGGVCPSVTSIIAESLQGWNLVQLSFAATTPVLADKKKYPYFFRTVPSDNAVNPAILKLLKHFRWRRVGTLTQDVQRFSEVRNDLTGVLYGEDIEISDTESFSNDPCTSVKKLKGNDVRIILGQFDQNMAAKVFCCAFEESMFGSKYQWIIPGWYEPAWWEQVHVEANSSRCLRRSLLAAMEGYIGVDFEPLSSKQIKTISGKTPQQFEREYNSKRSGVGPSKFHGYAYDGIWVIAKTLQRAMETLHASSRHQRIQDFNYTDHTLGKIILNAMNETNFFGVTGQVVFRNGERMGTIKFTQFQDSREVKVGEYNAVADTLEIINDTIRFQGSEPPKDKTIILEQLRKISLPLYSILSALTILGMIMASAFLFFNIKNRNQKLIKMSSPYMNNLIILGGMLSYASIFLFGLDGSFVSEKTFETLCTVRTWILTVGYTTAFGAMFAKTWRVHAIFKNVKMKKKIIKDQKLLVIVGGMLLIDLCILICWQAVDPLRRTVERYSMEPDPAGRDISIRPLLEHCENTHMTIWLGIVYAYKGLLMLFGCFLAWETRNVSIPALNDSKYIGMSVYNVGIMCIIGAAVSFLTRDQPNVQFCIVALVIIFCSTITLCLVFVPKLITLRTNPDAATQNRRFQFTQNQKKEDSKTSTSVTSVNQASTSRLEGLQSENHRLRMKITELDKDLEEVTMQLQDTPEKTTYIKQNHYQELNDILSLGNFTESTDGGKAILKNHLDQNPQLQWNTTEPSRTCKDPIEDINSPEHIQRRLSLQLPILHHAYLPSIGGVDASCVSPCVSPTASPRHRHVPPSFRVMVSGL
smiles,measurement,setting,value
N[C@H]1C[C@@H](C(=O)O)CC1=C(F)F [CPP-115],ED50,[1]; Mus musculus,58.9 mg/kg
same,MES TPE,[1],TPE 6 hours
same,ED50,[2]; 32 mA,5.2 mg/kg
same,ED50,[2]; 44 mA,28.4 mg/kg
same,6 Hz TPE,[2]; 32 mA,TPE 4 hours
same,6 Hz TPE,[2]; 44 mA,TPE 4 hours
same,inhibitory activity at GABA transporters,[3],no inhibitory activity
same,dopamine levels after cocaine challenge,[4],less than 300 times baseline
same,IC50,[5],> 100 µM
same,"effective dose, times lower than the 300 mg/kg dose of vigabatrin",[6]; 0.5 mg/kg versus 300 mg/kg,600 times
same,effect on cocaine-induced increases in synaptic dopamine,"[6]; 0.5 mg/kg, 2.5 h before cocaine 5.0 mg/kg i.v.",complete blockade of cocaine-induced increases in synaptic dopamine
same,"dose blocking cocaine-induced dopamine increase and CPP, times lower than vigabatrin","[6]; μPET and CPP, summary statement",100 times
same,IC50,[7],> 1000 µM
same,scBIC protected,[8],About 50% protected
